Laboratory results reported in ChEMBL document CHEMBL4725465 (ACS Med Chem Lett, 2020).
Where a SMILES comes first, the peptide text is derived from it. [ ]: non-standard residue; d: D form. The star is where a group is joined. Gly(N-(2R-Ph-propyl)) = C[C@@H](CNCC(=O)O)c1ccccc1; Piperidin1yl(4-NH2,4-COOH) = NC1(C(=O)O)CCN(*)CC1; N(Indan-2-yl)Gly = O=C(O)CNC1Cc2ccccc2C1; Gly(NCH2CH2Ph) = O=C(O)CNCCc1ccccc1; Morpholide = C1CN(*)CCO1; X1 = CNC(=O)NC1CCN(*)CC1

What was measured:
[1] = molecular target: Kappa-type opioid receptor (Homo sapiens, UniProt P41145); test: Agonist activity at human kappa opioid receptor expressed in HEK293 cells assessed as inhibition of forskolin-induced cAMP accumulation measured after 5 hrs by One-Glo luciferase assay; format: functional, cell-based
Kappa-type opioid receptor, sequence (P41145 whole entry): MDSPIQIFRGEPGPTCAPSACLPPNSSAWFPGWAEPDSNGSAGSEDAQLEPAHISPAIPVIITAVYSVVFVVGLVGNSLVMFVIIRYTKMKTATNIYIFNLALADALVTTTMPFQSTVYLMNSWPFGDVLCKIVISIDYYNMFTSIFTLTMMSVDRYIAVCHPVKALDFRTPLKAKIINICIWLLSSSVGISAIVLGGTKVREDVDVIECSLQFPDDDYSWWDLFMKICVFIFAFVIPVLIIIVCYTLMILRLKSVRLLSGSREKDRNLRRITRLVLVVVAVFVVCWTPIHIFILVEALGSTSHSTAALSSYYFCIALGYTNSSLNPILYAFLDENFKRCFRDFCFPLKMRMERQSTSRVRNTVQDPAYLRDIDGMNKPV

Rattus norvegicus [2] = test: Antiinflammatory activity in carrageenan-induced pain in Wistar rat model assessed as effect on hindpaw withdrawal threshold at 0.3 mg/kg, iv administered 4 hrs post-carrageenan challenge and measured for 30 mins after compound administration by Von-Frey test relative to control; format: functional; details: dose mg/kg 0.03-0.3, 0.5 h
[3] = molecular target: Delta-type opioid receptor (Homo sapiens, UniProt P41143); test: Agonist activity at human delta opioid receptor assessed as inhibition of forskolin-induced cAMP accumulation
Delta-type opioid receptor, sequence (P41143 whole entry): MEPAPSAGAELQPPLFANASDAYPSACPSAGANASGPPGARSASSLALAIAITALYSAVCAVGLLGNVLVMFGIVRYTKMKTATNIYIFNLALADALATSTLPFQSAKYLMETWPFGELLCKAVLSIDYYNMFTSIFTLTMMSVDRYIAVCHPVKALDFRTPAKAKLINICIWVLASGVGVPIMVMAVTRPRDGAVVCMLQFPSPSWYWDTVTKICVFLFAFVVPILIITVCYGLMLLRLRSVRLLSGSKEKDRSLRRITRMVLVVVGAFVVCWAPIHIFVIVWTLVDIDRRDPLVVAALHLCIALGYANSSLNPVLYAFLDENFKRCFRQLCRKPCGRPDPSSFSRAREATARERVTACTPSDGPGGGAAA

Mu-type opioid receptor = Mu-type opioid receptor (Homo sapiens, UniProt P35372); test: Agonist activity at human mu opioid receptor assessed as inhibition of forskolin-induced cAMP accumulation; format: ADME
Mu-type opioid receptor, sequence (P35372 whole entry): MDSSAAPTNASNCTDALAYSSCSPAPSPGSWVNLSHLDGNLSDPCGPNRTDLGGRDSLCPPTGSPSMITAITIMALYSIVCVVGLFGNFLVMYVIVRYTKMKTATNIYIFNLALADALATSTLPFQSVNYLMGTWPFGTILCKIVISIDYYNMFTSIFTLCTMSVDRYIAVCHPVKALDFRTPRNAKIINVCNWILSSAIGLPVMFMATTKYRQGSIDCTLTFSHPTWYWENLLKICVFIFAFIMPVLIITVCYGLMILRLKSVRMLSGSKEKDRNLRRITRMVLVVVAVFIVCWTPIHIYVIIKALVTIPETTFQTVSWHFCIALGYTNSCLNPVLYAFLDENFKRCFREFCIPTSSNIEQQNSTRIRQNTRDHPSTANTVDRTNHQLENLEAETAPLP

[4] = Half life in human liver microsomes; format: ADME, Microsome
[5] = Half life in rat liver microsomes; format: ADME, Microsome
[6] = Half life in mouse liver microsomes; format: ADME, Microsome
Cytochrome P450 1A2 = molecular target: T1, Cytochrome P450 1A2 (Homo sapiens, UniProt P05177); test: Inhibition of CYP1A2 in human pooled liver microsomes using phenacetin as substrate measured up to 20 mins by UHPLC-MS/MS analysis; format: ADME
T1 sequence (P05177 whole entry): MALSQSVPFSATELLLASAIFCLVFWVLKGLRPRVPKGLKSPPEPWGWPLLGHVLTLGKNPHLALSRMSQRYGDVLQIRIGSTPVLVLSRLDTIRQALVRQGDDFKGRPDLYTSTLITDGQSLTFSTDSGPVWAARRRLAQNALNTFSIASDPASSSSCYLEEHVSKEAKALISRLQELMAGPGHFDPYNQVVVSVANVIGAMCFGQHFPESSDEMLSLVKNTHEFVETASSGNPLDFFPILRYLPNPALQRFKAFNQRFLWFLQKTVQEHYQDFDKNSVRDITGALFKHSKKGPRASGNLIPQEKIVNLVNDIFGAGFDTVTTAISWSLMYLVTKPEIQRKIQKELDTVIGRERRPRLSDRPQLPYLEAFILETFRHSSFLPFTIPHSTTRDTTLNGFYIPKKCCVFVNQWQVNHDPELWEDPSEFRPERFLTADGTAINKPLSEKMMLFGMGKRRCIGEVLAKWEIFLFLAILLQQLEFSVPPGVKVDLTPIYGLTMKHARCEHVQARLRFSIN

Cytochrome P450 2C9 = Cytochrome P450 2C9 (Homo sapiens, UniProt P11712); test: Inhibition of CYP2C9 in human pooled liver microsomes using tolbutamide as substrate measured up to 20 mins by UHPLC-MS/MS analysis; format: ADME
Cytochrome P450 2C9, sequence (P11712 whole entry): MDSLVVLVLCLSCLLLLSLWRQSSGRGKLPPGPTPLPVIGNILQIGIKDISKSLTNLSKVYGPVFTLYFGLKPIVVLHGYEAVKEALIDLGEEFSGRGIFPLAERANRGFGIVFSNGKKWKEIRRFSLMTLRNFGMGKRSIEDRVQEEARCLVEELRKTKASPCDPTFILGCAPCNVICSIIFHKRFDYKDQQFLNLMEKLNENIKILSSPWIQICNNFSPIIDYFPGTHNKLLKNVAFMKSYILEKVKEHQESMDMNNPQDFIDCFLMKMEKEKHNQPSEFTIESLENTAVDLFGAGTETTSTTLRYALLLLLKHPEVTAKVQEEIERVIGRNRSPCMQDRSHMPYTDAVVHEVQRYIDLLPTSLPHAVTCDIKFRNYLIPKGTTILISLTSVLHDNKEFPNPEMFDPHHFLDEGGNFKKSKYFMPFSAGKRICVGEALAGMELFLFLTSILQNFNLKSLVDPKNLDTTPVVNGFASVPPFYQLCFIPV

Cytochrome P450 2D6 = Cytochrome P450 2D6 (Homo sapiens, UniProt P10635); test: Inhibition of CYP2D6 in human pooled liver microsomes using dextromethorphan as substrate measured up to 20 mins by UHPLC-MS/MS analysis; format: ADME
Cytochrome P450 2D6, sequence (P10635 whole entry): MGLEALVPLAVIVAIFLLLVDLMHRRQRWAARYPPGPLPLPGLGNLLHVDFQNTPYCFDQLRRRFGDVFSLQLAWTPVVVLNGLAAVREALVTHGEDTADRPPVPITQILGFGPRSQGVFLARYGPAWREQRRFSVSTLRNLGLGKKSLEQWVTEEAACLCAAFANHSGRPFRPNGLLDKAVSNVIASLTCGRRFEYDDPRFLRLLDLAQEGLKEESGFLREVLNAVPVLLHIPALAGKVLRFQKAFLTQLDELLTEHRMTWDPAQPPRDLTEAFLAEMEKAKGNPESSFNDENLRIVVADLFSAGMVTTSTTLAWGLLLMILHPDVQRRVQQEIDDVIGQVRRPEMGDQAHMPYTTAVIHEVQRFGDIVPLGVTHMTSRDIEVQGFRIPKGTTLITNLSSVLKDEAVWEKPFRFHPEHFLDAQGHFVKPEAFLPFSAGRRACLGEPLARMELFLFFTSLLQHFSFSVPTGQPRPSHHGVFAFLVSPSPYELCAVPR

Cytochrome P450 3A4 [7] = molecular target: T2, Cytochrome P450 3A4 (Homo sapiens, UniProt P08684); test: Inhibition of CYP3A4 in human pooled liver microsomes using midazolam as substrate measured up to 20 mins by UHPLC-MS/MS analysis; format: ADME
T2 sequence (P08684 whole entry): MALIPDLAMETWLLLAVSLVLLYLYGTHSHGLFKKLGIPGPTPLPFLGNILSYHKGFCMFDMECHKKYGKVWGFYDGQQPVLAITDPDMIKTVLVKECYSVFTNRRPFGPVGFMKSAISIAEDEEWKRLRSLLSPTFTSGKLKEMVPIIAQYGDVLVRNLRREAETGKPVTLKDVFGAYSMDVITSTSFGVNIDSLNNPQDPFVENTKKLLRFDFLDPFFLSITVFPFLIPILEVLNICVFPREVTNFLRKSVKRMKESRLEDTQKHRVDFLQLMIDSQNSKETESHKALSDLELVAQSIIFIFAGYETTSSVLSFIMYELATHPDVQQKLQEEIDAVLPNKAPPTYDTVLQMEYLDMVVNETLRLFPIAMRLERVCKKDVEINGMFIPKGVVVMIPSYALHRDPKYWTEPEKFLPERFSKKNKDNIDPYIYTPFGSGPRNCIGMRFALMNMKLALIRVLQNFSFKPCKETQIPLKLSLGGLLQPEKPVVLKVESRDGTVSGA

Cytochrome P450 3A4 [8] = molecular target: T2, Cytochrome P450 3A4; test: Inhibition of CYP3A4 in human pooled liver microsomes using testosterone as substrate measured up to 20 mins by UHPLC-MS/MS analysis; format: ADME
Cytochrome P450 2C19 = Cytochrome P450 2C19 (Homo sapiens, UniProt P33261); test: Inhibition of CYP2C19 in human pooled liver microsomes using S-mephenytoin as substrate measured up to 20 mins by UHPLC-MS/MS analysis; format: ADME
Cytochrome P450 2C19, sequence (P33261 whole entry): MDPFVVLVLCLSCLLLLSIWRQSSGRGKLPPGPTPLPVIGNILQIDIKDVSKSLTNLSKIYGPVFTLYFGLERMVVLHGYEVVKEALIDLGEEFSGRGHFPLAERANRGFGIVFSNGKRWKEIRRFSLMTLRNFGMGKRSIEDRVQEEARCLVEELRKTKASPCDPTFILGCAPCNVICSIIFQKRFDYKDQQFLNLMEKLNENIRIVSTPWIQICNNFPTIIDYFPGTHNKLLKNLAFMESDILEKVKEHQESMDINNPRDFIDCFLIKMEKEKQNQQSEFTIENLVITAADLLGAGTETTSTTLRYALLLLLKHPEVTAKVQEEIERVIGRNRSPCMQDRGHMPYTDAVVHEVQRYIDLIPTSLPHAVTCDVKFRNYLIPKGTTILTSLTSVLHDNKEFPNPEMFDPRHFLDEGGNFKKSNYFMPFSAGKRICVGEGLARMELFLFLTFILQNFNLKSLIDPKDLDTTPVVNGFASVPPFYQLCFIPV

[9] = molecular target: Voltage-gated inwardly rectifying potassium channel KCNH2 (Homo sapiens, UniProt Q12809); test: Inhibition of human ERG
Voltage-gated inwardly rectifying potassium channel KCNH2, sequence (Q12809 whole entry): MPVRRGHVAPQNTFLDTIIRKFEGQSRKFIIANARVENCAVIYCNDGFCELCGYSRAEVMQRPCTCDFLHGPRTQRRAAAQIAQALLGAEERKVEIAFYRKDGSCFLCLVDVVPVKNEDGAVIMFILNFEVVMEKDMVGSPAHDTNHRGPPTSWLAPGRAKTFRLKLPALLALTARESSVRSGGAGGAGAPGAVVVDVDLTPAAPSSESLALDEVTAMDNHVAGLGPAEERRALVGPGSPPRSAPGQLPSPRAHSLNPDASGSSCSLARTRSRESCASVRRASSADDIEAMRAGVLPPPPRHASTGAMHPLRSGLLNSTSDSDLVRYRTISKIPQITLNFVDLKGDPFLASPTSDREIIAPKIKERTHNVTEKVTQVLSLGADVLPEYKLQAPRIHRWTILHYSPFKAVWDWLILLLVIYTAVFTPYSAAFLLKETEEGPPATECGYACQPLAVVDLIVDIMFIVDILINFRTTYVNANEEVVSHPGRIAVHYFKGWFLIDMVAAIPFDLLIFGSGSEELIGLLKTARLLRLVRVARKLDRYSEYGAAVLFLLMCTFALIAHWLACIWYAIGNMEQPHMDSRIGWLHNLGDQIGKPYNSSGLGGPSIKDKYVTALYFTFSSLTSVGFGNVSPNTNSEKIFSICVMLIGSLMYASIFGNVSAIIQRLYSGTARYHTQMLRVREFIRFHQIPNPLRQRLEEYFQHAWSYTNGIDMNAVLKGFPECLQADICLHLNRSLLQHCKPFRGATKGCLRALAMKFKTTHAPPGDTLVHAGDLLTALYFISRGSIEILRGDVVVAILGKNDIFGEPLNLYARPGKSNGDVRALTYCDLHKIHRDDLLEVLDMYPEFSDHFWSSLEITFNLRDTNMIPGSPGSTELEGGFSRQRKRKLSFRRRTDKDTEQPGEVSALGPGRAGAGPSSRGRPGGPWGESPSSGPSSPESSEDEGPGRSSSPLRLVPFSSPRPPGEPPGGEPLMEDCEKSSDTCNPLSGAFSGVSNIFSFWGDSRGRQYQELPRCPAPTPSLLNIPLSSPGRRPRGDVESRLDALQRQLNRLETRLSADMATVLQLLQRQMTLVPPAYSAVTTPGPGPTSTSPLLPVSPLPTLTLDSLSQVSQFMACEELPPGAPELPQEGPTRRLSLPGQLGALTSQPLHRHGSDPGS

[10] = Unbound fraction in Sprague-Dawley rat plasma at 1 mg/kg, iv; format: ADME, organism-based
[11] = Unbound fraction in Sprague-Dawley rat brain at 1 mg/kg, iv; format: ADME, organism-based
[12] = Drug concentration in Sprague-Dawley rat plasma at 1 mg/kg, iv; format: ADME, organism-based; details: in vivo
[13] = Drug concentration in Sprague-Dawley rat brain at 1 mg/kg, iv; format: ADME, organism-based; details: in vivo
[14] = Unbound brain-to-plasma concentration ratio in Sprague-Dawley rat at 1 mg/kg, iv; format: ADME, organism-based; details: read-out: K(p,uu,brain)
[15] = AUC (0 to t) in ICR mouse at 1 mg/kg, iv measured up to 24 hrs; format: ADME, organism-based; set-up: route intravenous, dose 1 mg/kg, time 24 hrs; details: in vivo
[16] = Half life in ICR mouse at 1 mg/kg, iv measured up to 24 hrs; format: ADME, organism-based; details: in vivo
[17] = Clearance in ICR mouse at 1 mg/kg, iv measured up to 24 hrs; format: ADME, organism-based; details: in vivo
[18] = Apparent volume of distribution in ICR mouse at 1 mg/kg, iv measured up to 24 hrs; format: ADME, organism-based; details: in vivo, read-out: Vz
[19] = AUC (0 to t) in Sprague-Dawley rat at 1 mg/kg, iv measured up to 24 hrs; format: ADME, organism-based; set-up: route intravenous, dose 1 mg/kg, time <=24; details: in vivo
[20] = Half life in Sprague-Dawley rat at 1 mg/kg, iv measured up to 24 hrs; format: ADME, organism-based; details: in vivo
[21] = Clearance in Sprague-Dawley rat at 1 mg/kg, iv measured up to 24 hrs; format: ADME, organism-based; details: in vivo
[22] = Apparent volume of distribution in Sprague-Dawley rat at 1 mg/kg, iv measured up to 24 hrs; format: ADME, organism-based; details: in vivo, read-out: Vz
[23] = AUC (0 to t) in Beagle dog at 0.5 mg/kg, iv measured up to 24 hrs; format: ADME, organism-based, Canis lupus familiaris; set-up: route intravenous, dose 0.5 mg/kg, time <=24; details: in vivo
[24] = Half life in Beagle dog at 0.5 mg/kg, iv measured up to 24 hrs; format: ADME, organism-based, Canis lupus familiaris; details: in vivo
[25] = Clearance in Beagle dog at 0.5 mg/kg, iv measured up to 24 hrs; format: ADME, organism-based, Canis lupus familiaris; details: in vivo
[26] = Apparent volume of distribution in Beagle dog at 0.5 mg/kg, iv measured up to 24 hrs; format: ADME, organism-based, Canis lupus familiaris; details: in vivo, read-out: Vz
Rattus norvegicus [27] = test: Antiinflammatory activity in carrageenan-induced pain in iv dosed Wistar rat model assessed as effect on hindpaw withdrawal threshold administered 4 hrs post-carrageenan challenge and measured for 30 mins after compound administration by Von-Frey test; format: functional, organism-based; details: dose mg/kg 0.03-0.3, time 30.0 min
Rattus norvegicus [28] = test: Antiinflammatory activity in carrageenan-induced pain in Wistar rat model assessed as effect on hindpaw withdrawal threshold at 0.03 to 0.3 mg/kg, iv administered 4 hrs post-carrageenan challenge and measured for 30 mins after compound administration by Von-Frey test relative to control; format: functional; details: dose mg/kg 0.03-0.3, 0.5 h
[29] = Half life in dog liver microsomes; format: ADME, Canis lupus familiaris, Microsome

SMILES: CC(C)C[C@@H](NC(=O)[C@@H](Cc1ccccc1)NC(=O)CNCCc1ccccc1)C(=O)N[C@H](CCCCN)C(=O)N1CCOCC1
- EC50 [1]: 0.048 nM

SMILES: CC(C)C[C@@H](NC(=O)[C@@H](Cc1ccccc1)NC(=O)CNC[C@H](C)c1ccccc1)C(=O)N[C@H](CCCCN)C(=O)N1CCC(N)(C(=O)O)CC1 [RIMINKEFON]
- EC50 [1]: 0.0014 nM

SMILES: CC(C)C[C@@H](NC(=O)[C@@H](Cc1ccccc1)NC(=O)[C@@H]1Cc2ccccc2CN1)C(=O)N[C@H](CCCCN)C(=O)N1CCOCC1
- EC50 [1]: > 1 nM

SMILES: CC(C)C[C@@H](NC(=O)[C@@H](Cc1ccccc1)NC(=O)CNCCCc1ccccc1)C(=O)N[C@H](CCCCN)C(=O)N1CCOCC1
- EC50 [1]: 0.045 nM

SMILES: CCC(CNCC(=O)N[C@H](Cc1ccccc1)C(=O)N[C@H](CC(C)C)C(=O)N[C@H](CCCCN)C(=O)N1CCC(N)(C(=O)O)CC1)c1ccccc1 (mixture of isomers)
- EC50 [1]: 0.0029 nM

SMILES: CC(C)C[C@@H](NC(=O)[C@@H](Cc1ccccc1)NC(=O)CNCc1ccccc1)C(=O)N[C@H](CCCCN)C(=O)N1CCOCC1
- EC50 [1]: > 1 nM

SMILES: CC(C)C[C@@H](NC(=O)[C@@H](Cc1ccccc1)NC(=O)[C@@H](C)NCCc1ccccc1)C(=O)N[C@H](CCCCN)C(=O)N1CCC(N)(C(=O)O)CC1
- EC50 [1]: > 1 nM

SMILES: CC(C)C[C@@H](NC(=O)[C@@H](Cc1ccccc1)NC(=O)CNC[C@@H](C)c1ccccc1)C(=O)N[C@H](CCCCN)C(=O)N1CCC(N)(C(=O)O)CC1
- EC50 [1]: 0.0155 nM

SMILES: CC(C)C[C@@H](NC(=O)[C@@H](Cc1ccccc1)NC(=O)CNC[C@@H](c1ccccc1)C(C)C)C(=O)N[C@H](CCCCN)C(=O)N1CCC(N)(C(=O)O)CC1
- EC50 [1]: 0.0095 nM

SMILES: CC(C)C[C@@H](NC(=O)[C@@H](Cc1ccccc1)NC(=O)[C@H](N)Cc1ccccc1)C(=O)N[C@H](CCCCN)C(=O)N1CCC(N)(C(=O)O)CC1 [DIFELIKEFALIN]
- EC50 [1]: 0.00262 nM
- Activity (Rattus norvegicus [2]): 61.9%

SMILES: CC(C)C[C@@H](NC(=O)[C@@H](Cc1ccccc1)NC(=O)C1(NCCc2ccccc2)CC1)C(=O)N[C@H](CCCCN)C(=O)N1CCC(N)(C(=O)O)CC1
- EC50 [1]: > 1 nM

SMILES: CC(C)C[C@@H](NC(=O)[C@@H](Cc1ccccc1)NC(=O)CN[C@H]1C[C@@H]1c1ccccc1)C(=O)N[C@H](CCCCN)C(=O)N1CCOCC1
- EC50 [1]: 0.08 nM

SMILES: CC(C)C[C@@H](NC(=O)[C@@H](Cc1ccccc1)NC(=O)CNCC(C)(C)c1ccccc1)C(=O)N[C@H](CCCCN)C(=O)N1CCC(N)(C(=O)O)CC1
- EC50 [1]: 0.078 nM

SMILES: CC(C)C[C@@H](NC(=O)[C@@H](Cc1ccccc1)NC(=O)CNCCc1ccccc1)C(=O)N[C@H](CCCCN)C(=O)N1CCC(N)(C(=O)O)CC1 (H-[Gly(NCH2CH2Ph)][dF][dL][dK]-{Piperidin1yl(4-NH2,4-COOH)})
- EC50 [1]: 0.054 nM

SMILES: CC(C)C[C@@H](NC(=O)[C@@H](Cc1ccccc1)NC(=O)CNCC1(c2ccccc2)CC1)C(=O)N[C@H](CCCCN)C(=O)N1CCC(N)(C(=O)O)CC1
- EC50 [1]: 0.057 nM

SMILES: CNC(=O)NC1CCN(C(=O)[C@@H](CCCCN)NC(=O)[C@@H](CC(C)C)NC(=O)[C@@H](Cc2ccccc2)NC(=O)CNC[C@H](C)c2ccccc2)CC1 (H-[Gly(N-(2R-Ph-propyl))][dF][dL][dK]-X1)
- EC50 [1]: 0.00053 nM
- EC50 [3]: > 50000 nM
- EC50 (Mu-type opioid receptor): > 50000 nM
- half-life [4]: 0.667 h
- half-life [5]: > 4.47 h
- half-life [6]: 1.92 h
- IC50 (Cytochrome P450 1A2): > 30000 nM
- IC50 (Cytochrome P450 2C9): > 30000 nM
- IC50 (Cytochrome P450 2D6): > 30000 nM
- IC50 (Cytochrome P450 3A4 [7]): > 30000 nM
- IC50 (Cytochrome P450 3A4 [8]): > 30000 nM
- IC50 (Cytochrome P450 2C19): > 30000 nM
- IC50 [9]: > 30000 nM
- fraction unbound [10]: 0.211
- fraction unbound [11]: 0.0258
- Cp [12]: 1144 ng/mL
- Ct [13]: 57.2 ng/g
- Kp uu [14]: 0.006
- AUC(0-t) at 24 h [15]: 1660 ng·h/mL
- half-life [16]: 0.34 h
- clearance [17]: 10.1 mL/min/kg
- Vd [18]: 0.297 L/kg
- AUC(0-t) at 24 h [19]: 1550 ng·h/mL
- half-life [20]: 4.78 h
- clearance [21]: 10.5 mL/min/kg
- Vd [22]: 4.51 L/kg
- AUC(0-t) at 24 h [23]: 2620 ng·h/mL
- half-life [24]: 4.45 h
- clearance [25]: 3.1 mL/min/kg
- Vd [26]: 1.24 L/kg
- Activity (Rattus norvegicus [27]): Dose-dependent effect
- Activity (Rattus norvegicus [28]): 28.9%
- Activity (Rattus norvegicus [2]): 66.7%
- half-life [29]: 3.6 h

SMILES: CC(C)C[C@@H](NC(=O)[C@@H](Cc1ccccc1)NC(=O)CNC1Cc2ccccc2C1)C(=O)N[C@H](CCCCN)C(=O)N1CCOCC1 (H-[N(Indan-2-yl)Gly][dF][dL][dK]-Morpholide)
- EC50 [1]: > 1 nM
